From patent US12084459B2, “2-(4-{1-[6-(4-isopropyl-phenyl)-imidazo[2,1-b][1,3,4]thiadiazol-2-yl]-piperidin-4-ylmethyl}-piperazin-1-yl)-ethanol and use thereof” (Urifer Ltd., priority 2020, dated 2024)

Tests used:
H358 derived xenografts = H358 derived xenografts in Nude mice; type: in vivo; conditions: 25 mg/kg daily intraperitoneal in 1% Tween 80, H358 xenografts, FIG. 7
Description: In vivo activity of the E266 (compound (I) of the present application) compared to that of the E260 (EP 2401283) in H358 derived xenografts in immune-compromised (Nude) mice.
In order to compare the relative efficacy of E266 and E260 in inhibiting the development and progression of malignant tumors in-vivo, the activity in xenograft model in mice was examined for both compounds. H358 derived xenografts in immune-compromised were elicited in (Nude) mice. The H358 cells, which are metastatic bronchioloalveolar carcinoma (BAC)-non-small cell lung cancer (NSCLC) cells, were subcutaneously injected to the back of the nude mice. When the developing xenografts reached 100 mm^3 size, the inflicted animals were divided into three groups, 10 mice in each group. One group received daily intraperitoneal injection of the solvent 1% Tween 80. This solvent/emulsifier is biocompatible and is approved for pharmaceutical applications in humans. The second group received daily intraperitoneal injection of 25 mg/kg E260 dissolved in 1% Tween 80, and the third group got daily intraperitoneal injection of 25 mg/kg, E266 dissolved in the 1% Tween 80, solvent. The progression of the elicited xenografts was monitored by measuring twice a week the volumes of the developing tumors.

[1] = system: metastatic pancreatic ductal adenocarcinoma Su.86.86 cancer cells; experiment: viability / killing of Su.86.86 cells; type: cell-based; conditions: E266 versus E260; compound (I) as tartarate salt in 0.5% Tween-80; FIG. 4
Description: (§1) The compound (I), as tartarate salt was dissolved in 0.5% Tween-80 to affect the viability of several cell lines as follows.
(§2) The effect of the compound (I) (E266) on the growth profile of cancer cells which express Fer was tested. The cells that were tested were: the metastatic colon cancer cell line—SW620, the metastatic pancreatic ductal-adenocarcinoma SU.86.86 cancer cell-line—SU.86.86, the metastatic Triple Negative breast cancer cell line—MDA-MB-231, and the metastatic prostate cancer cell-line—PC3. The effect of the compound (I) (E266) on FS11 cells, a non malignant fibroblastic cell line, was also studied.

[2] = system: metastatic colon cancer SW620 cells; experiment: viability / killing of SW620 cells; type: cell-based; conditions: E266 versus E260; compound (I) as tartarate salt in 0.5% Tween-80; FIG. 3
Description: as §1, §2

[3] = system: metastatic adenocarcinoma PC3 prostate Cancer cells; experiment: viability / killing of PC3 cells; type: cell-based; conditions: E266 versus E260; compound (I) as tartarate salt in 0.5% Tween-80; FIG. 6
Description: as §1, §2

[4] = system: metastatic Triple negative MDA-MB-231 Breast cancer cells; experiment: viability / killing of MDA-MB-231 cells; type: cell-based; conditions: E266 versus E260; compound (I) as tartarate salt in 0.5% Tween-80; FIG. 5
Description: as §1, §2

[5] = insolubility level in PBS/Polysorbate-80 (Tween 80) solution; type: physicochemical; conditions: 0.5 mM and 1 mM in PBS/Polysorbate-80 (Tween 80) solution at 25° C. (FIG. 1A, 1B)
normal Epithelial cells = experiment: effect on normal epithelial cells; type: cell-based; conditions: FIG. 2
Description: Compound (I) was dissolved in 20% hydroxypropylcyclodextrane and the volume of administration (IP) was 10 ml/kg.

Structure (SMILES): CC(C)c1ccc(-c2cn3nc(N4CCC(CN5CCN(C)CC5)CC4)sc3n2)cc1 [Compound E260, reference compound]
- progression of the developing tumors (xenograft volume) (H358 derived xenografts): failed to do so
- killing metastatic pancreatic ductal adenocarcinoma Su.86.86 cancer cells [1]: comparable activity
- killing metastatic colon cancer SW620 cells [2]: comparable activity
- killing metastatic adenocarcinoma PC3 prostate Cancer cells [3]: comparable activity
- killing metastatic Triple negative MDA-MB-231 Breast cancer cells [4]: comparable activity
- solubility (insolubility level) [5]: insoluble
- effect on normal Epithelial cells (normal Epithelial cells): no effect
